In patent US20220304950A1, “[…] THE TREATMENT OF PATIENTS WITH MAJOR DEPRESSIVE DISORDER, INCLUDING SUICIDALITY” (JANSSEN PHARMACEUTICALS, INC., priority 2019, published 2022):

Tested on: adult patients with MDD assessed to be at imminent risk for suicide
Assay: Adverse events (TEAEs, SAEs), Study 1 (Example 4)
Experimental: This is a randomized, double-blind, placebo-controlled, multicenter study to evaluate the efficacy of intranasal esketamine 84 mg compared with intranasal placebo in addition to comprehensive standard of care in reducing the symptoms of MDD, including suicidal ideation, in adult male and female patients who were assessed to be at imminent risk for suicide.
The study consisted of a screening evaluation performed within 48 hours prior to the Day 1 intranasal dose, immediately followed by a 25-day double-blind treatment phase (Day 1 to 25), and a 65-day follow-up phase (Day 26 to Day 90). The total study duration for each subject was approximately 13 weeks.
The study consisted of a screening evaluation performed within 24 to 48 hours prior to the Day 1 dose, immediately followed by a 25-day double-blind treatment phase (Day 1 to 25) with twice-weekly dosing sessions, and a 9-week follow up phase (Day 26 to Day 90). All participants received comprehensive SOC, including in-patient psychiatric hospitalization and the initiation or optimization of standard antidepressant medication (determined by the treating physician based on clinical judgment and practice guidelines).

[1] = Esk 84 mg + SOC, double-blind phase
[2] = Esk 84 mg + SOC, double-blind phase, listed as ESK
[3] = Esk 84 mg + SOC, double-blind phase, listed as Esk
[4] = Esk 84 mg + SOC, follow-up phase

CN[C@]1(c2ccccc2Cl)CCCCC1=O [esketamine, (S)-2-(2-chlorophenyl)-2-(methylamino)cyclohexanone]
TEAE leading to discontinuation: Dizziness, subjects % [1]: 0.9% | TEAE leading to discontinuation: Dizziness, subjects n [1]: 1 | TEAE leading to discontinuation: Hallucination, visual, subjects % [1]: 0.9% | TEAE leading to discontinuation: Hallucination, visual, subjects n [1]: 1 | TEAE leading to discontinuation: Headache, subjects % [1]: 0.9% | TEAE leading to discontinuation: Headache, subjects n [1]: 1 | TEAE leading to discontinuation: Hepatobiliary disorders, subjects n [1]: 0 | TEAE leading to discontinuation: Hypertransaminasaemia, subjects n [1]: 0 | TEAE leading to discontinuation: Hypoaesthesia, subjects % [1]: 0.9% | TEAE leading to discontinuation: Hypoaesthesia, subjects n [1]: 1 | TEAE leading to discontinuation: Investigations, subjects % [1]: 0.9% | TEAE leading to discontinuation: Investigations, subjects n [1]: 1 | TEAE leading to discontinuation: Nervous system disorders, subjects % [1]: 2.7% | TEAE leading to discontinuation: Nervous system disorders, subjects n [1]: 3 | TEAE leading to discontinuation: Pharyngeal hypoaesthesia, subjects % [1]: 0.9% | TEAE leading to discontinuation: Pharyngeal hypoaesthesia, subjects n [1]: 1 | TEAE leading to discontinuation: Psychiatric disorders, subjects % [1]: 2.7% | TEAE leading to discontinuation: Psychiatric disorders, subjects n [1]: 3 | TEAE leading to discontinuation: Respiratory, thoracic and mediastinal disorders, subjects % [1]: 0.9% | TEAE leading to discontinuation: Respiratory, thoracic and mediastinal disorders, subjects n [1]: 1 | TEAE leading to discontinuation: Sedation, subjects % [1]: 0.9% | TEAE leading to discontinuation: Sedation, subjects n [1]: 1 | TEAE leading to discontinuation: Somnolence, subjects % [1]: 0.9% | TEAE leading to discontinuation: Somnolence, subjects n [1]: 1 | TEAE leading to discontinuation: Suicidal ideation, subjects n [1]: 0 | TEAE somnolence, subjects % [1]: (18.6%) | Serious TEAE Depression suicidal, subjects n [2]: 1 | Serious TEAE Psychiatric disorders, subjects % [2]: < 5% | Subjects with severe TEAEs, % [2]: 8.8% | Serious TEAE Depression suicidal, subjects n [3]: 2 | Serious TEAE Psychiatric disorders, subjects % [3]: (2.7%) | Subjects with 1 or more TEAEs, % [3]: (88.5%) | Subjects with serious TEAEs, % [3]: (3.5%) | Subjects with severe TEAEs, % [3]: (8.8%) | TEAE Dissociation, subjects % [3]: (29.2%) | TEAE Dizziness, subjects % [3]: (35.4%) | TEAE Nausea, subjects % [3]: (20.4%) | Subjects with TEAEs leading to discontinuation of study agent, % (Esk 84 mg + SOC, double-blind phase, safety set): 4.4% | AE Anxiety, subjects % [4]: (3.0%) | AE Anxiety, subjects n [4]: 3 | AE Depression, subjects % [4]: (8.9%) | AE Depression, subjects n [4]: 9 | AE Headache, subjects % [4]: (5.9%) | AE Headache, subjects n [4]: 6 | AE Nervous system disorders, subjects % [4]: (11.9%) | AE Nervous system disorders, subjects n [4]: 12 | AE Psychiatric disorders, subjects % [4]: (28.7%) | AE Psychiatric disorders, subjects n [4]: 29 | AE Suicidal ideation, subjects % [4]: (5.0%) | AE Suicidal ideation, subjects n [4]: 5 | SAE Completed suicide, subjects % [4]: (1.0%) | SAE Completed suicide, subjects n [4]: 1 | SAE Depression suicidal, subjects % [4]: (5.0%) | SAE Depression suicidal, subjects n [4]: 5 | SAE Depression, subjects % [4]: (1.0%) | SAE Depression, subjects n [4]: 1 | SAE Depressive symptom, subjects % [4]: (1.0%) | SAE Depressive symptom, subjects n [4]: 1 | SAE Major depression, subjects % [4]: (1.0%) | SAE Major depression, subjects n [4]: 1 | SAE Musculoskeletal and connective tissue disorders, subjects n [4]: 0 | SAE Psychiatric disorders, subjects % [4]: (12.9%) | SAE Psychiatric disorders, subjects n [4]: 13 | SAE Rhabdomyolysis, subjects n [4]: 0 | SAE Suicidal ideation, subjects % [4]: (2.0%) | SAE Suicidal ideation, subjects n [4]: 2 | SAE Suicide attempt, subjects % [4]: (3.0%) | SAE Suicide attempt, subjects n [4]: 3 | Subjects with 1 or more AEs, % [4]: (48.5%) | Subjects with AEs leading to death, % [4]: (1.0%) | Subjects with serious AEs, % [4]: 12.9% | Subjects with severe AEs, % [4]: (5.9%) | Subjects with serious AEs, % (Esk 84 mg + SOC, follow-up phase, listed as Esk): (12.9%) | Overall safety and tolerability (in words) (intranasal ESK+SOC): safe and tolerated
